Source: patent publication US8653092B2, “Tetrahydro-pyrido-pyrimidine derivatives” (Novartis AG, priority 2010, dated 2014)
Where two headings read alike, the source gives them in different places.

What was measured:
[1] = target: human phosphoinositide-3 kinase (PI3K) delta (Homo sapiens (Human), UniProt O00329); test: PI3K-mediated Akt 1/2 (S473) phosphorylation in Rat-1 cells (AlphaScreen SureFire); format: cell-based; conditions: Rat-1 cells overexpressing myristoylated human PI3K delta, p-Akt (Ser473); read-out: Cell PI3Kδ/ IC50 [umol l − 1]
Sequence of human phosphoinositide-3 kinase (PI3K) delta (O00329 whole entry): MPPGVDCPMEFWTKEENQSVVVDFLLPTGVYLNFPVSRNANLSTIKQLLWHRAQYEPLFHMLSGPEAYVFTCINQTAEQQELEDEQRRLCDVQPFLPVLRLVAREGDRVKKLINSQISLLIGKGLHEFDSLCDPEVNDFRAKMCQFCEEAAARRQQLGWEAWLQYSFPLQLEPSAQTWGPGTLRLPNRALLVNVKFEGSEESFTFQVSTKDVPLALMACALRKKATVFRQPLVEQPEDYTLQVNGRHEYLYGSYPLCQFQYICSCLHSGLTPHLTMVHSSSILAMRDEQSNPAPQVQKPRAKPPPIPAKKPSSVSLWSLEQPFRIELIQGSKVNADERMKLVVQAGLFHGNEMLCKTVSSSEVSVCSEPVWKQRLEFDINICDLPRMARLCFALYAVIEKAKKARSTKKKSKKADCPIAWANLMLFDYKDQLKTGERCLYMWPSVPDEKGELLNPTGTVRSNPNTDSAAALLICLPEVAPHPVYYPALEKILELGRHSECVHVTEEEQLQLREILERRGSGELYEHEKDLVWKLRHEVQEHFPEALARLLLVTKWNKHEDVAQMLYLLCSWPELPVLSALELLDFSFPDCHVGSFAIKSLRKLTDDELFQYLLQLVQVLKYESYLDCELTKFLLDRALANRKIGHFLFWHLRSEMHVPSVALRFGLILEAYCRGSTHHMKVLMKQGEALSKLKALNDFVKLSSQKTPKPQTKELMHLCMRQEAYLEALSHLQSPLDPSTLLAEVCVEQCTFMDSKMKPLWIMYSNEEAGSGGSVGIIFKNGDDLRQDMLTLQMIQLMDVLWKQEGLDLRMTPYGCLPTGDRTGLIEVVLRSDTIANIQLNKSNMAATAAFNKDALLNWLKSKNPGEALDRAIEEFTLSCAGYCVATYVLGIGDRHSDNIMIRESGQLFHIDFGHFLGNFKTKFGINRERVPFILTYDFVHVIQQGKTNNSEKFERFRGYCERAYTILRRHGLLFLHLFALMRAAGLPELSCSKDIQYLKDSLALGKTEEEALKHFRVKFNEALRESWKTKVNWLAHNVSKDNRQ
Sequence of human phosphoinositide-3 kinase (PI3K) delta (Q63787 whole entry partner): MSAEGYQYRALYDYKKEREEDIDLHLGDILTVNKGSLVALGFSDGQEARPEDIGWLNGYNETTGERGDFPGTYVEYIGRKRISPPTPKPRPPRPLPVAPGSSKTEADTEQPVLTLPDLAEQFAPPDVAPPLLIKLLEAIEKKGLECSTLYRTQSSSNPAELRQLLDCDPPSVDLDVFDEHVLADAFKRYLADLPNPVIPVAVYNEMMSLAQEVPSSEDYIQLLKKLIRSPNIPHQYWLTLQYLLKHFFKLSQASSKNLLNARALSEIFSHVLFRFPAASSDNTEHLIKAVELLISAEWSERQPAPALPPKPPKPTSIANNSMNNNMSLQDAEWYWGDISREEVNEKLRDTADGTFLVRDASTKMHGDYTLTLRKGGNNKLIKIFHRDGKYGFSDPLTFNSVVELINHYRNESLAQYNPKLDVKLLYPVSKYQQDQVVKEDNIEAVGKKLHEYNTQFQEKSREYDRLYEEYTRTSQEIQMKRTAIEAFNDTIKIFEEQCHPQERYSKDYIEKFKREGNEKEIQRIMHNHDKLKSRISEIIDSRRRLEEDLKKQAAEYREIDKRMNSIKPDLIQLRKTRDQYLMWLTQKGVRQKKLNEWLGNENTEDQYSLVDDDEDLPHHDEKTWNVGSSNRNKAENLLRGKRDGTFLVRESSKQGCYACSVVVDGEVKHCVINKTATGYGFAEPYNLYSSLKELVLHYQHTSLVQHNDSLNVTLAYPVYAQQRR
Procedure: Rat-1 cells stably overexpressing a myristoylated form of the catalytic subunit of human phosphoinositide-3 kinase (PI3K) alpha, beta or delta were plated in 384-well plates at a density of 7500 (PI3K alpha), 6200 (PI3K beta), or 4000 (PI3K delta) cells in 30 ul complete growth medium (Dulbecco's modified Eagle's medium (DMEM high glucose) supplemented with 10% (v/v) fetal bovine serum, 1% (v/v) MEM non essential amino acids, 10 mM HEPES, 2 mM L-glutamine, 10 μg/mL puromycin and 1% (v/v) Penicillin/Streptomycin) and were incubated at […]/5% CO2/95% humidity for 24 h. Compounds were diluted in 384-well compound plates to obtain 8-point serial dilutions for 40 test compounds in 90% DMSO, as well as 4 reference compounds plus 16 high controls and 16 low (inhibited) controls. Predilution plates were prepared by dispensing pipetting 250 nl of compound solutions into 384-well polypropylen plates using a Hummingwell nanoliter dispensor. Compounds were prediluted by the addition of 49.75 ul complete growth medium. 10 ul of prediluted compound solution were transferred to the cell plate using a 384-well pipettor, resulting in a final DMSO concentration of 0.11%. Cells were incubated for 1 h at […]/5% CO2/95% humidity. The supernatant was removed, the cells were lysed in 20 ul of lysis buffer for AlphaScreen® SureFire® detection.
For detection of p-AKT (Ser473), the SureFire® p-Akt 1/2 (Ser473) Assay Kit (PerkinElmer, U.S.A) was used. 5 ul of cell lysate was transferred to 384-well low volume Proxiplates for detection using a 384-well pipettor. Addition of AlphaScreen® SureFire® reagents was done according to the manufacturer's protocol. First, 5 ul of reaction buffer plus activation buffer mix containing AlphaScreen® acceptor beads was added, the plate was sealed, and incubated on a plate shaker for 2 hours at room temperature. Second, 2 ul of dilution buffer containing AlphaScreen® donor beads was added, and the plate was incubated on plate shaker as above for a further 2 hours. The plate was read on an AlphaScreen® compatible plate reader, using standard AlphaScreen® settings.

PI3K alpha = PI3K alpha (Homo sapiens (Human), UniProt P42336); test: Enzymatic PI3K alpha isoform inhibition (lipid kinase, Kinase-Glo luminescence); format: biochemical
Sequence of PI3K alpha (P42336 other isoform, or with tags, fused parts or gaps): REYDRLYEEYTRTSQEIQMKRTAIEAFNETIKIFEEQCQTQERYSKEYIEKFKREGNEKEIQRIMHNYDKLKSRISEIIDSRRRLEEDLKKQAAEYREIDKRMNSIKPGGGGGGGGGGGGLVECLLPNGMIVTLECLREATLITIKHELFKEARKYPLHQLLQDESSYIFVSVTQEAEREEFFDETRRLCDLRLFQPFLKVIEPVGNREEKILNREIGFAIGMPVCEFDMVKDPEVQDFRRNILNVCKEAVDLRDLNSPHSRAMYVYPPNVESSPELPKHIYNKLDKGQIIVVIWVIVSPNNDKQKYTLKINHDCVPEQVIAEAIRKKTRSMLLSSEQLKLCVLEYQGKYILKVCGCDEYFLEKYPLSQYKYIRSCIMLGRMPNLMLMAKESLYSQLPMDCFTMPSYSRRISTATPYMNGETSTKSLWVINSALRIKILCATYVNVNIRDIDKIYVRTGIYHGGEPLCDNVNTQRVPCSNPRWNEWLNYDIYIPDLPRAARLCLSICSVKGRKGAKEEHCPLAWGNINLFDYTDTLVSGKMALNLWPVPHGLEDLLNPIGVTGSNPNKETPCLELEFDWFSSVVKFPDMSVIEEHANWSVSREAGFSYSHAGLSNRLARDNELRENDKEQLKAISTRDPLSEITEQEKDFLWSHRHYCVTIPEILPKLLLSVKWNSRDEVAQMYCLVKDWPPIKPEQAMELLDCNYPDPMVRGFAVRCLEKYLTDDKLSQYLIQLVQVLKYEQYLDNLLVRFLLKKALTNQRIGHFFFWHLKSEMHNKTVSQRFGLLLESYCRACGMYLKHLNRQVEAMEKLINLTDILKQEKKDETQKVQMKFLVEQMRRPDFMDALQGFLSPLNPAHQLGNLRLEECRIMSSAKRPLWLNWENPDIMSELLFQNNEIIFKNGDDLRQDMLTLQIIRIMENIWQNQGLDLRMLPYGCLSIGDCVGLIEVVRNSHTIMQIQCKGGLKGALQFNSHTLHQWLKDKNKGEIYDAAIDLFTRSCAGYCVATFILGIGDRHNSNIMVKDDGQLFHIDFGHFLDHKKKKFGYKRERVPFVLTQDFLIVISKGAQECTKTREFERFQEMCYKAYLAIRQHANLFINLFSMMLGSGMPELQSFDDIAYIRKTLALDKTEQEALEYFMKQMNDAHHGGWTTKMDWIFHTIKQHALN

murine B cells = test: Murine B cell activation: CD86 upregulation after anti-IgM stimulation; format: cell-based, mouse; conditions: read-out: mCD86/IC50 CD86 [nmol l − 1]
Procedure: Spleens from Balb/c mice were collected, splenocytes were isolated and washed twice with RPMI containing 10% foetal bovine serum (FBS), 10 mM HEPES, 100 Units/mL penicilline/streptomycine. RPMI supplemented in this way is subsequently referred to as medium. The cells were adjusted to 2.5×10^6 cells/mL in medium and 200 μl cell suspension (5×10^6 cells) were added to the appropriate wells of 96 well plates.
Then the cells were stimulated by adding 50 μl anti-IgM mAb in medium (final concentration: 30 μg/mL). After incubation for 24 hours at 37° C., the cells were stained with the following antibody cocktails: anti-mouse CD86-FITC, anti-mouse CD69-PerCP-Cy5.5, anti-mouse CD19-PerCP for the assessment of B cells, and anti-mouse CD3-FITC, anti-mouse CD69-PE for the assessment of T cells (2 μl of each antibody/well). After one hour at room temperature (RT) in the dark the cells were transferred to 96 Deepwell plates. The cells were washed once with 1 mL PBS containing 2% FBS and after re-suspension in 200 μl the samples were analyzed on a FACS Calibur flow cytometer. Lymphocytes were gated in the FSC/SSC dot plot according to size and granularity and further analyzed for expression of CD19, CD3 and activation markers (CD86, CD69). Data were calculated from dot blots as percentage of cells positively stained for activation markers within the CD19+ or CD3+ population using BD CellQest Software.
For assessing the inhibitory property of compounds, compounds were first dissolved and diluted in DMSO followed by a 1:50 dilution in medium. Splenocytes from Balb/c mice were isolated, re-suspended and transfered to 96 well plates as described above (200 μl/well). The diluted compounds or solvent were added to the plates (25 μl) and incubated at 37° C. for 1 hour. Then the cultures were stimulated with 25 μl anti-IgM mAb/well (final concentration […]) for 24 hours at 37° C. and stained with anti-mouse CD86-FITC and anti-mouse CD19-PerCP (2 μl of each antibody/well). CD86 expression on CD19 positive B cells was quantified by flow cytometry as described above.

PI3K delta = PI3K delta (Homo sapiens (Human), UniProt O00329); test: Enzymatic PI3K delta isoform inhibition (lipid kinase, Kinase-Glo luminescence); format: biochemical; conditions: enzymatic assay
Sequence of PI3K delta (O00329 other isoform, or with tags, fused parts or gaps linker GGGGGG): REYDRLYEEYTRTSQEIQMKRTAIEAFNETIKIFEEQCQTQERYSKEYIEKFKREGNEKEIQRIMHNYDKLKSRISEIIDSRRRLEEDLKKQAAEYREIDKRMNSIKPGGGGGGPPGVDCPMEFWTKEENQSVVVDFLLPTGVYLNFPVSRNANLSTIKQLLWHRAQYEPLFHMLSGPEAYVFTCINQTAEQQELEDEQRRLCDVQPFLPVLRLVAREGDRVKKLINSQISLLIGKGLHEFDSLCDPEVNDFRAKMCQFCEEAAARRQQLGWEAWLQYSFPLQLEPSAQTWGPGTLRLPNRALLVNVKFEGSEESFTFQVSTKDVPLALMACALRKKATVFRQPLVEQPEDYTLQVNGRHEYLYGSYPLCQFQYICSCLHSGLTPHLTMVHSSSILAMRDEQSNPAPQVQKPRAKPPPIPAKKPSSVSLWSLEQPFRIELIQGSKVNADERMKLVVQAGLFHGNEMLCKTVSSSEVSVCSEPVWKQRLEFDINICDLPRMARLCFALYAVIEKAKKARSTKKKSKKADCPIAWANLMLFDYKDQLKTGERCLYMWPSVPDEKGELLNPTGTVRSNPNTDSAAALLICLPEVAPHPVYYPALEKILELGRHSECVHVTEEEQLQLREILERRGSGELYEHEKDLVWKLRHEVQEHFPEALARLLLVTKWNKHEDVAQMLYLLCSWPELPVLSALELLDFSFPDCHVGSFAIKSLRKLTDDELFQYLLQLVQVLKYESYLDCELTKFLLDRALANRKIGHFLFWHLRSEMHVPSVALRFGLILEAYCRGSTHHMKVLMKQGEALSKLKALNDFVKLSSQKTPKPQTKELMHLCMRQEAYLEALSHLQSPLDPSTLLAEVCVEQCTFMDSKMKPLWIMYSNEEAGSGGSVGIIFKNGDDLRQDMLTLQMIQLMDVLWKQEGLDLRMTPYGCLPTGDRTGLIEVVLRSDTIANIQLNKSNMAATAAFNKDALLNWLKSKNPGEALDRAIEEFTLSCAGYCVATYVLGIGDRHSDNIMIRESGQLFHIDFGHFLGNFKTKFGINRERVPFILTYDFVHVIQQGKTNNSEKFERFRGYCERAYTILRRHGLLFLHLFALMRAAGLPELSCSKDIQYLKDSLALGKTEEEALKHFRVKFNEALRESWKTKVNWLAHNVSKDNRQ

[2] = Balb/c mouse splenocytes, anti-IgM 24 h, CD86 on CD19+ B cells

Compound | IC50 [1] | IC50 (PI3K alpha) | IC50 (murine B cells; [2]) | IC50 (PI3K delta) | IC50 (PI3K alpha; enzymatic assay) | IC50 (murine B cells; Mus musculus, 24 h)
COc1ncc(N2CCc3ncnc(N[C@H]4CCN(C(=O)C5CCOC(C)(C)C5)C4)c3C2)cc1C(F)(F)F (stereo partly drawn) [Example 71, (2,2-Dimethyl-tetrahydro-pyran-4-yl)-{(S)-3-[6-(6-methoxy-5-trifluoromethyl-pyridin-3-yl)-5,6,7,8-tetrahydro-pyrido[4,3-d]pyrimidin-4-ylamino]-pyrrolidin-1-yl}-methanone] | 35 nM | 57 nM | 24.7 nM | 3 nM |  | 
COc1cc(N2CCc3ncnc(O[C@H]4CCN(C(=O)C5CCOCC5)C4)c3C2)cnc1OC [Example 5, {(S)-3-[6-(5,6-Dimethoxy-pyridin-3-yl)-5,6,7,8-tetrahydro-pyrido[4,3-d]pyrimidin-4-yloxy]-pyrrolidin-1-yl}-(tetrahydro-pyran-4-yl)-methanone] | 455 nM |  | 125 nM | 20 nM | 749 nM | 
COc1ncc(N2CCc3ncnc(O[C@H]4CCN(C(=O)c5cn(C)cn5)C4)c3C2)cc1C [Example 20, {(S)-3-[6-(6-Methoxy-5-methyl-pyridin-3-yl)-5,6,7,8-tetrahydro-pyrido[4,3-d]pyrimidin-4-yloxy]-pyrrolidin-1-yl}-(1-methyl-1H-imidazol-4-yl)-methanone] | 254 nM |  | 120 nM | 48 nM | 1840 nM | 
COc1ncc(N2CCc3ncnc(O[C@H]4CCN(c5ccccn5)C4)c3C2)cc1C(F)(F)F [Example 65, 6-(6-Methoxy-5-trifluoromethyl-pyridin-3-yl)-4-((S)-1-pyridin-2-yl-pyrrolidin-3-yloxy)-5,6,7,8-tetrahydro-pyrido[4,3-d]pyrimidine] | 191 nM |  | 570 nM | 23 nM | 738 nM | 
CCC(=O)N1CC[C@H](Nc2ncnc3c2CN(c2cnc(OC)c(C(F)(F)F)c2)CC3)C1 [Example 67, 1-{(S)-3-[6-(6-Methoxy-5-trifluoromethyl-pyridin-3-yl)-5,6,7,8-tetrahydro-pyrido[4,3-d]pyrimidin-4-ylamino]-pyrrolidin-1-yl}-propan-1-one] |  |  |  |  | 262 nM | 48.3 nM
COc1ncc(N2CCc3ncnc(N[C@H]4CCN(C(=O)C5CCOCC5)C4)c3C2)cc1C(F)(F)F [Example 68, {(S)-3-[6-(6-Methoxy-5-trifluoromethyl-pyridin-3-yl)-5,6,7,8-tetrahydro-pyrido[4,3-d]pyrimidin-4-ylamino]-pyrrolidin-1-yl}-(tetrahydro-pyran-4-yl)-methanone] | 53 nM |  | 14.9 nM | 7 nM | 43 nM | 
COc1ncc(N2CCc3ncnc(N[C@H]4CCN(C(=O)C5CCOCC5)C4)c3C2)cc1Cl [Example 82, {(S)-3-[6-(5-Chloro-6-methoxy-pyridin-3-yl)-5,6,7,8-tetrahydro-pyrido[4,3-d]pyrimidin-4-ylamino]-pyrrolidin-1-yl}-(tetrahydro-pyran-4-yl)-methanone] | 116 nM |  | 46.2 nM | 3 nM | 66 nM | 
CCC(=O)N1CC[C@H](Nc2ncnc3c2CN(c2cnc(OC)c(C)c2)CC3)C1 [Example 81, 1-{(S)-3-[6-(6-Methoxy-5-methyl-pyridin-3-yl)-5,6,7,8-tetrahydro-pyrido[4,3-d]pyrimidin-4-ylamino]-pyrrolidin-1-yl}-propan-1-one] | 246 nM |  | 86.5 nM | 20 nM | 651 nM | 
COc1cc(N2CCc3ncnc(O[C@H]4CCN(C(=O)C5CCOC(C)(C)C5)C4)c3C2)cnc1OC (stereo partly drawn) [Example 24, {(S)-3-[6-(5,6-Dimethoxy-pyridin-3-yl)-5,6,7,8-tetrahydro-pyrido[4,3-d]pyrimidin-4-yloxy]-pyrrolidin-1-yl}-(2,2-dimethyl-tetrahydro-pyran-4-yl)-methanone] |  |  |  | 9 nM | 374 nM | 
COc1ncc(N2CCc3ncnc(O[C@H]4CCN(C(=O)C5CCOC(C)(C)C5)C4)c3C2)cc1C (stereo partly drawn) [Example 38, (2,2-Dimethyl-tetrahydro-pyran-4yl)-{(S)-3-[6-(6-Methoxy-5-methyl-pyridin-3-yl)-5,6,7,8-tetrahydro-pyrido[4,3-d]pyrimidin-4-yloxy]-pyrrolidin-1-yl}-methanone] |  |  |  | 16 nM | 3310 nM | 
COc1ncc(N2CCc3ncnc(O[C@H]4CCN(C(=O)c5cn[nH]c5)C4)c3C2)cc1C(F)(F)F [Example 49, {(S)-3-[6-(6-Methoxy-5-trifluoromethyl-pyridin-3-yl)-5,6,7,8-tetrahydro-pyrido[4,3-d]pyrimidin-4-yloxy]-pyrrolidin-1-yl}-(1H-pyrazol-4-yl)-methanone] |  |  |  | 34 nM | 388 nM | 
COc1ncc(N2CCc3ncnc(O[C@H]4CCN(C(=O)C5CCOC(C)(C)C5)C4)c3C2)cc1C#N (stereo partly drawn) [Example 29, 5-{4-[(S)-1-(2,2-Dimethyl-tetrahydro-pyran-4-carbonyl)-pyrrolidin-3-yloxy]-7,8-dihydro-5H-pyrido[4,3-d]pyrimidin-6-yl}-2-methoxy-nicotinonitrile] |  |  |  | 11 nM | 2580 nM | 
COc1ncc(N2CCc3ncnc(N[C@H]4CCN(C(=O)c5cocn5)C4)c3C2)cc1C [Example 79, {(S)-3-[6-(6-Methoxy-5-methyl-pyridin-3-yl)-5,6,7,8-tetrahydro-pyrido[4,3-d]pyrimidin-4-ylamino]-pyrrolidin-1-yl}-oxazol-4-yl-methanone] |  |  |  | 17 nM | 781 nM | 
COc1ncc(N2CCc3ncnc(O[C@H]4CCN(C(=O)c5oc(C)nc5C)C4)c3C2)cc1C#N [Example 28, 5-{4-[(S)-1-(2,4-Dimethyl-oxazole-5-carbonyl)-pyrrolidin-3-yloxy]-7,8-dihydro-5H-pyrido[4,3-d]pyrimidin-6-yl}-2-methoxy-nicotinonitrile] | 268 nM |  | 71.6 nM | 4 nM | 1210 nM | 
COc1ncc(N2CCc3ncnc(O[C@H]4CCN(C(=O)C5CCN(C(C)=O)CC5)C4)c3C2)cc1C(F)(F)F [Example 92, 1-(4-{(S)-3-[6-(6-Methoxy-5-trifluoromethyl-pyridin-3-yl)-5,6,7,8-tetrahydro-pyrido[4,3-d]pyrimidin-4-yloxy]-pyrrolidine-1-carbonyl}-piperidin-1-yl)-ethanone] |  |  |  | 9 nM | 2540 nM | 
COc1ncc(N2CCc3ncnc(O[C@H]4CCN(C(=O)C5CCS(=O)(=O)CC5)C4)c3C2)cc1C(F)(F)F [Example 39, (1,1-Dioxo-hexahydro-1lambda*6*-thiopyran-4-yl)-{(S)-3-[6-(6-methoxy-5-trifluoromethyl-pyridin-3-yl)-5,6,7,8-tetrahydro-pyrido[4,3-d]pyrimidin-4-yloxy]-pyrrolidin-1-yl}-methanone] |  |  |  | 9 nM | 434 nM | 
